Experimental data: the NIST ThermoML archive (doi:10.1016/j.fluid.2017.07.006)

Conditions: Liquid

CC(O)CO (centres undefined) [1,2-propanediol]
Conditions | mass density [kg/m3] | viscosity [mPa·s]
292.1 K, 101.33 kPa, Capillary tube (Ostwald / Ubbelohde) method | – | 60.61
293.1 K, 101.33 kPa, Capillary tube (Ostwald / Ubbelohde) method | – | 58.09
293.15 K, 101.33 kPa, Pycnometric method | 1035.5 | –
298.15 K, 98 kPa, Buoyancy - hydrostatic balance | 1032.56 | –
298.15 K, 98 kPa, Falling or rolling sphere viscometry | – | 43.69
298.15 K, 101.33 kPa, Capillary tube (Ostwald / Ubbelohde) method | – | 43.69
298.15 K, 101.33 kPa, Pycnometric method | 1032.56 | –
298.15 K, 49030 kPa, Buoyancy - hydrostatic balance | 1055.29 | –
298.15 K, 49030 kPa, Falling or rolling sphere viscometry | – | 64.02
298.15 K, 98060 kPa, Buoyancy - hydrostatic balance | 1072.94 | –
298.15 K, 98060 kPa, Falling or rolling sphere viscometry | – | 94.28
298.15 K, 147100 kPa, Buoyancy - hydrostatic balance | 1088.48 | –
298.15 K, 147100 kPa, Falling or rolling sphere viscometry | – | 134.1
298.15 K, 196130 kPa, Buoyancy - hydrostatic balance | 1104.32 | –
298.15 K, 196130 kPa, Falling or rolling sphere viscometry | – | 187.2
298.15 K, 245160 kPa, Buoyancy - hydrostatic balance | 1115.28 | –
298.15 K, 245160 kPa, Falling or rolling sphere viscometry | – | 260.7
303.15 K, 98 kPa, Buoyancy - hydrostatic balance | 1028.87 | –
303.15 K, 98 kPa, Falling or rolling sphere viscometry | – | 32.35
303.15 K, 49030 kPa, Buoyancy - hydrostatic balance | 1052.03 | –
303.15 K, 49030 kPa, Falling or rolling sphere viscometry | – | 48.25
303.15 K, 98060 kPa, Buoyancy - hydrostatic balance | 1070.79 | –
303.15 K, 98060 kPa, Falling or rolling sphere viscometry | – | 69.46
303.15 K, 147100 kPa, Buoyancy - hydrostatic balance | 1086.25 | –
303.15 K, 147100 kPa, Falling or rolling sphere viscometry | – | 97.33
303.15 K, 196130 kPa, Buoyancy - hydrostatic balance | 1101.4 | –
303.15 K, 196130 kPa, Falling or rolling sphere viscometry | – | 134.7
303.15 K, 245160 kPa, Buoyancy - hydrostatic balance | 1112.65 | –
303.15 K, 245160 kPa, Falling or rolling sphere viscometry | – | 183.3
303.4 K, 101.33 kPa, Capillary tube (Ostwald / Ubbelohde) method | – | 31.54
312.98 K, 98 kPa, Buoyancy - hydrostatic balance | 1022.16 | –
312.98 K, 98 kPa, Falling or rolling sphere viscometry | – | 19.45
313 K, 49030 kPa, Buoyancy - hydrostatic balance | 1046.22 | –
313 K, 49030 kPa, Falling or rolling sphere viscometry | – | 28.34
313.03 K, 147100 kPa, Buoyancy - hydrostatic balance | 1081.67 | –
313.03 K, 147100 kPa, Falling or rolling sphere viscometry | – | 54.68
313.03 K, 245160 kPa, Buoyancy - hydrostatic balance | 1107.51 | –
313.03 K, 245160 kPa, Falling or rolling sphere viscometry | – | 98.04
313.04 K, 196130 kPa, Buoyancy - hydrostatic balance | 1095.69 | –
313.04 K, 196130 kPa, Falling or rolling sphere viscometry | – | 73.88
313.05 K, 98060 kPa, Buoyancy - hydrostatic balance | 1065.24 | –
313.05 K, 98060 kPa, Falling or rolling sphere viscometry | – | 39.87
313.15 K, 101.33 kPa, Pycnometric method | 1021.9 | –
313.9 K, 101.33 kPa, Capillary tube (Ostwald / Ubbelohde) method | – | 19.37
316 K, 101.33 kPa, Capillary tube (Ostwald / Ubbelohde) method | – | 17.04
332.1 K, 101.33 kPa, Capillary tube (Ostwald / Ubbelohde) method | – | 8.76
333.15 K, 101.33 kPa, Pycnometric method | 1006.3 | –
335.76 K, 98060 kPa, Buoyancy - hydrostatic balance | 1050.34 | –
335.76 K, 98060 kPa, Falling or rolling sphere viscometry | – | 14.23
335.78 K, 98 kPa, Buoyancy - hydrostatic balance | 1005.31 | –
335.78 K, 98 kPa, Falling or rolling sphere viscometry | – | 7.524
335.78 K, 147100 kPa, Buoyancy - hydrostatic balance | 1068.19 | –
335.78 K, 147100 kPa, Falling or rolling sphere viscometry | – | 18.86
335.8 K, 49030 kPa, Buoyancy - hydrostatic balance | 1029.3 | –
335.8 K, 49030 kPa, Falling or rolling sphere viscometry | – | 10.59
335.8 K, 196130 kPa, Buoyancy - hydrostatic balance | 1082.92 | –
335.8 K, 196130 kPa, Falling or rolling sphere viscometry | – | 24.61
336.01 K, 245160 kPa, Buoyancy - hydrostatic balance | 1095.8 | –
336.01 K, 245160 kPa, Falling or rolling sphere viscometry | – | 30.53
353.15 K, 101.33 kPa, Pycnometric method | 990.28 | –
353.4 K, 101.33 kPa, Capillary tube (Ostwald / Ubbelohde) method | – | 4.29
353.6 K, 101.33 kPa, Capillary tube (Ostwald / Ubbelohde) method | – | 4.18
364.39 K, 98 kPa, Buoyancy - hydrostatic balance | 981.63 | –
364.39 K, 98 kPa, Falling or rolling sphere viscometry | – | 3.034
364.66 K, 49030 kPa, Buoyancy - hydrostatic balance | 1007.36 | –
364.66 K, 49030 kPa, Falling or rolling sphere viscometry | – | 4.074
364.83 K, 98060 kPa, Buoyancy - hydrostatic balance | 1031.15 | –
364.83 K, 98060 kPa, Falling or rolling sphere viscometry | – | 5.292
364.87 K, 147100 kPa, Buoyancy - hydrostatic balance | 1051.61 | –
364.87 K, 147100 kPa, Falling or rolling sphere viscometry | – | 6.718
364.99 K, 245160 kPa, Buoyancy - hydrostatic balance | 1081.56 | –
364.99 K, 245160 kPa, Falling or rolling sphere viscometry | – | 10.31
365 K, 196130 kPa, Buoyancy - hydrostatic balance | 1067.32 | –
365 K, 196130 kPa, Falling or rolling sphere viscometry | – | 8.372
365.15 K, 101.33 kPa, Pycnometric method | 978.97 | –
368.15 K, 101.33 kPa, Pycnometric method | 977.28 | –
388.6 K, 101.33 kPa, Capillary tube (Ostwald / Ubbelohde) method | – | 1.767
389.3 K, 101.33 kPa, Capillary tube (Ostwald / Ubbelohde) method | – | 1.7
394.95 K, 98 kPa, Buoyancy - hydrostatic balance | 953.22 | –
394.95 K, 98 kPa, Falling or rolling sphere viscometry | – | 1.504
395.11 K, 49030 kPa, Buoyancy - hydrostatic balance | 982.98 | –
395.11 K, 49030 kPa, Falling or rolling sphere viscometry | – | 1.954
395.17 K, 98060 kPa, Buoyancy - hydrostatic balance | 1010.62 | –
395.17 K, 98060 kPa, Falling or rolling sphere viscometry | – | 2.451
395.38 K, 147100 kPa, Buoyancy - hydrostatic balance | 1033.92 | –
395.38 K, 147100 kPa, Falling or rolling sphere viscometry | – | 3.011
395.57 K, 196130 kPa, Buoyancy - hydrostatic balance | 1051.9 | –
395.57 K, 196130 kPa, Falling or rolling sphere viscometry | – | 3.659
395.68 K, 245160 kPa, Buoyancy - hydrostatic balance | 1067.12 | –
395.68 K, 245160 kPa, Falling or rolling sphere viscometry | – | 4.374
399.15 K, 101.33 kPa, Pycnometric method | 949.76 | –
423.3 K, 101.33 kPa, Capillary tube (Ostwald / Ubbelohde) method | – | 0.926
423.51 K, 98 kPa, Buoyancy - hydrostatic balance | 926.76 | –
423.51 K, 98 kPa, Falling or rolling sphere viscometry | – | 0.925
423.62 K, 49030 kPa, Buoyancy - hydrostatic balance | 959.18 | –
423.62 K, 49030 kPa, Falling or rolling sphere viscometry | – | 1.239
423.65 K, 101.33 kPa, Pycnometric method | 925.92 | –
423.9 K, 98060 kPa, Buoyancy - hydrostatic balance | 989.94 | –
423.9 K, 98060 kPa, Falling or rolling sphere viscometry | – | 1.533
423.97 K, 147100 kPa, Buoyancy - hydrostatic balance | 1016.34 | –
423.97 K, 147100 kPa, Falling or rolling sphere viscometry | – | 1.89
424.05 K, 196130 kPa, Buoyancy - hydrostatic balance | 1038.38 | –
424.05 K, 196130 kPa, Falling or rolling sphere viscometry | – | 2.244
424.3 K, 245160 kPa, Buoyancy - hydrostatic balance | 1054.25 | –
424.3 K, 245160 kPa, Falling or rolling sphere viscometry | – | 2.608
450.15 K, 101.33 kPa, Pycnometric method | 896.89 | –
452.07 K, 245160 kPa, Buoyancy - hydrostatic balance | 1042.31 | –
452.07 K, 245160 kPa, Falling or rolling sphere viscometry | – | 1.656
452.1 K, 49030 kPa, Buoyancy - hydrostatic balance | 934.51 | –
452.1 K, 49030 kPa, Falling or rolling sphere viscometry | – | 0.81
452.14 K, 98060 kPa, Buoyancy - hydrostatic balance | 965.53 | –
452.14 K, 98060 kPa, Falling or rolling sphere viscometry | – | 0.995
452.17 K, 98 kPa, Buoyancy - hydrostatic balance | 900.36 | –
452.17 K, 98 kPa, Falling or rolling sphere viscometry | – | 0.604
452.18 K, 196130 kPa, Buoyancy - hydrostatic balance | 1022.83 | –
452.18 K, 196130 kPa, Falling or rolling sphere viscometry | – | 1.425
452.19 K, 147100 kPa, Buoyancy - hydrostatic balance | 996.01 | –
452.19 K, 147100 kPa, Falling or rolling sphere viscometry | – | 1.212
458.9 K, 101.33 kPa, Capillary tube (Ostwald / Ubbelohde) method | – | 0.533
